According to PubChem BioAssay (NCI):
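These data come from cells grown in 96-well plates and exposed to compound for 48 hours at five concentrations. At the GI50, growth is halved. At the TGI there is no net growth.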

How the values were obtained:
Assay in all cases: NCI-60 cell line screen, 48 h
PC-3 prostate = test system: PC-3 prostate
NCI-H226 lung = test system: NCI-H226 lung
HCT-15 colon = test system: HCT-15 colon
CCRF-CEM leukemia = test system: CCRF-CEM leukemia
LOX IMVI melanoma = test system: LOX IMVI melanoma
HOP-62 NSCLC = test system: HOP-62 NSCLC
SF-268 CNS = test system: SF-268 CNS
ACHN renal = test system: ACHN renal
T-47D breast = test system: T-47D breast
M14 melanoma = test system: M14 melanoma
SF-539 CNS = test system: SF-539 CNS
NCI-H23 lung = test system: NCI-H23 lung
UO-31 renal = test system: UO-31 renal
SF-295 CNS = test system: SF-295 CNS
SNB-19 CNS = test system: SNB-19 CNS
HCT-116 colon = test system: HCT-116 colon
SNB-75 CNS = test system: SNB-75 CNS
K-562 leukemia = test system: K-562 leukemia
MOLT-4 leukemia = test system: MOLT-4 leukemia
DU-145 prostate = test system: DU-145 prostate
OVCAR-3 ovarian = test system: OVCAR-3 ovarian
RXF 393 renal = test system: RXF 393 renal
OVCAR-8 ovarian = test system: OVCAR-8 ovarian
UACC-62 melanoma = test system: UACC-62 melanoma
NCI/ADR-RES ovarian = test system: NCI/ADR-RES ovarian
SN12C renal = test system: SN12C renal
A549 NSCLC = test system: A549 NSCLC
HL-60(TB) leukemia = test system: HL-60(TB) leukemia
HS 578T breast = test system: HS 578T breast
U251 CNS = test system: U251 CNS
NCI-H522 lung = test system: NCI-H522 lung
KM12 colon = test system: KM12 colon
UACC-257 melanoma = test system: UACC-257 melanoma
HCC-2998 colon = test system: HCC-2998 colon
EKVX NSCLC = test system: EKVX NSCLC
SK-MEL-5 melanoma = test system: SK-MEL-5 melanoma
SR leukemia = test system: SR leukemia
HT29 colon = test system: HT29 colon
TK-10 renal = test system: TK-10 renal
MCF7 breast = test system: MCF7 breast
HOP-92 NSCLC = test system: HOP-92 NSCLC
A498 renal = test system: A498 renal
MDA-MB-231 breast = test system: MDA-MB-231 breast
CAKI-1 renal = test system: CAKI-1 renal
NCI-H460 lung = test system: NCI-H460 lung
MDA-MB-435 = test system: MDA-MB-435
SK-MEL-28 melanoma = test system: SK-MEL-28 melanoma
SK-MEL-2 melanoma = test system: SK-MEL-2 melanoma
COLO 205 colon = test system: COLO 205 colon
SW-620 colon = test system: SW-620 colon
IGROV1 ovarian = test system: IGROV1 ovarian
RPMI-8226 leukemia = test system: RPMI-8226 leukemia
MALME-3M melanoma = test system: MALME-3M melanoma
OVCAR-5 ovarian = test system: OVCAR-5 ovarian
OVCAR-4 ovarian = test system: OVCAR-4 ovarian
SK-OV-3 ovarian = test system: SK-OV-3 ovarian

## Cc1cccc(C(O)c2ccncc2)c1O (stereo not drawn)
PC-3 prostate
  TGI: > 100 µM
NCI-H226 lung
  TGI: > 100 µM
HCT-15 colon
  TGI: > 100 µM
CCRF-CEM leukemia
  TGI: > 100 µM
LOX IMVI melanoma
  TGI: > 100 µM
HOP-62 NSCLC
  TGI: > 100 µM
SF-268 CNS
  TGI: > 100 µM
ACHN renal
  TGI: > 100 µM
T-47D breast
  TGI: > 100 µM
M14 melanoma
  TGI: > 100 µM
SF-539 CNS
  TGI: > 100 µM
NCI-H23 lung
  TGI: > 100 µM
UO-31 renal
  TGI: > 100 µM
SF-295 CNS
  TGI: > 100 µM
SNB-19 CNS
  TGI: > 100 µM
HCT-116 colon
  TGI: > 100 µM
SNB-75 CNS
  TGI: > 100 µM
K-562 leukemia
  TGI: > 100 µM
MOLT-4 leukemia
  TGI: > 100 µM
DU-145 prostate
  TGI: > 100 µM
OVCAR-3 ovarian
  TGI: > 100 µM
RXF 393 renal
  TGI: > 100 µM
OVCAR-8 ovarian
  TGI: > 100 µM
UACC-62 melanoma
  TGI: > 100 µM
NCI/ADR-RES ovarian
  TGI: > 100 µM
SN12C renal
  TGI: > 100 µM
A549 NSCLC
  TGI: > 100 µM
HL-60(TB) leukemia
  TGI: > 100 µM
HS 578T breast
  TGI: > 100 µM
U251 CNS
  TGI: > 100 µM
NCI-H522 lung
  TGI: > 100 µM
KM12 colon
  TGI: > 100 µM
UACC-257 melanoma
  TGI: > 100 µM
HCC-2998 colon
  TGI: > 100 µM
EKVX NSCLC
  TGI: > 100 µM
SK-MEL-5 melanoma
  TGI: > 100 µM

## ClCc1c(Cl)c(Cl)c(Cl)c(CCl)c1Cl
PC-3 prostate
  GI50: 1.69 µM
  TGI: 3.15 µM
NCI-H226 lung
  GI50: 2.53 µM
  TGI: 7.3 µM
SR leukemia
  GI50: 1.48 µM
  TGI: 5 µM
HCT-15 colon
  GI50: 1.52 µM
  TGI: 2.85 µM
CCRF-CEM leukemia
  GI50: 0.841 µM
  TGI: 3.28 µM
HT29 colon
  GI50: 1.79 µM
  TGI: 3.3 µM
LOX IMVI melanoma
  GI50: 1.46 µM
  TGI: 3.13 µM
HOP-62 NSCLC
  GI50: 2.15 µM
  TGI: 4.25 µM
TK-10 renal
  GI50: 1.56 µM
  TGI: 2.89 µM
ACHN renal
  GI50: 1.64 µM
  TGI: 3 µM
T-47D breast
  GI50: 1.99 µM
  TGI: 3.87 µM
M14 melanoma
  GI50: 1.66 µM
  TGI: 3.43 µM
SF-539 CNS
  GI50: 3.72 µM
  TGI: 13.5 µM
NCI-H23 lung
  GI50: 2.3 µM
  TGI: 6.67 µM
MCF7 breast
  GI50: 1.73 µM
  TGI: 3.7 µM
UO-31 renal
  GI50: 1.63 µM
  TGI: 3.12 µM
SF-295 CNS
  GI50: 9.07 µM
  TGI: 27.7 µM
HOP-92 NSCLC
  GI50: 1.55 µM
  TGI: 3.15 µM
SNB-19 CNS
  GI50: 1.94 µM
  TGI: 4.23 µM
A498 renal
  GI50: 2.45 µM
  TGI: 12.5 µM
HCT-116 colon
  GI50: 1.71 µM
  TGI: 3.17 µM
SNB-75 CNS
  GI50: 2.15 µM
  TGI: 7.73 µM
K-562 leukemia
  GI50: 1.8 µM
  TGI: 4.37 µM
MOLT-4 leukemia
  GI50: 2.41 µM
  TGI: 5.86 µM
DU-145 prostate
  GI50: 1.98 µM
  TGI: 3.99 µM
OVCAR-3 ovarian
  GI50: 1.86 µM
  TGI: 3.26 µM
MDA-MB-231 breast
  GI50: 1.81 µM
  TGI: 3.29 µM
CAKI-1 renal
  GI50: 1.68 µM
  TGI: 3.1 µM
RXF 393 renal
  GI50: 1.71 µM
  TGI: 3.08 µM
NCI-H460 lung
  GI50: 1.79 µM
  TGI: 3.39 µM
MDA-MB-435
  GI50: 2.16 µM
  TGI: 5.68 µM
SK-MEL-28 melanoma
  GI50: 1.95 µM
  TGI: 3.96 µM
OVCAR-8 ovarian
  GI50: 2.51 µM
  TGI: 6.03 µM
UACC-62 melanoma
  GI50: 1.61 µM
  TGI: 3.13 µM
NCI/ADR-RES ovarian
  GI50: 3.5 µM
  TGI: 17.3 µM
SN12C renal
  GI50: 1.91 µM
  TGI: 4.03 µM
A549 NSCLC
  GI50: 4.8 µM
  TGI: 16.3 µM
HL-60(TB) leukemia
  GI50: 2.03 µM
  TGI: 4.07 µM
SK-MEL-2 melanoma
  GI50: 2.2 µM
  TGI: 5.07 µM
HS 578T breast
  GI50: 2.15 µM
  TGI: 5.61 µM
U251 CNS
  GI50: 1.71 µM
  TGI: 3.08 µM
COLO 205 colon
  GI50: 1.83 µM
  TGI: 3.33 µM
SW-620 colon
  GI50: 1.71 µM
  TGI: 3.12 µM
IGROV1 ovarian
  GI50: 1.97 µM
  TGI: 4.19 µM
RPMI-8226 leukemia
  GI50: 1.86 µM
  TGI: 4.24 µM
MALME-3M melanoma
  GI50: 1.55 µM
  TGI: 3.79 µM
OVCAR-5 ovarian
  GI50: 1.93 µM
  TGI: 4.18 µM
NCI-H522 lung
  GI50: 1.51 µM
  TGI: 3.12 µM
KM12 colon
  GI50: 1.85 µM
  TGI: 3.48 µM
OVCAR-4 ovarian
  GI50: 1.62 µM
  TGI: 2.98 µM
UACC-257 melanoma
  GI50: 1.84 µM
  TGI: 3.45 µM
HCC-2998 colon
  GI50: 1.78 µM
  TGI: 3.45 µM
EKVX NSCLC
  GI50: 1.81 µM
  TGI: 4.15 µM
SK-MEL-5 melanoma
  GI50: 2.23 µM
  TGI: 6.25 µM

## C#CC[C@@H]1C[C@]2(C)[C@H]3CC=C4[C@H]5CC(C)(C)CC[C@]5(C(=O)NCCCCN)CC[C@@]4(C)[C@]3(C)CC[C@H]2C(C)(C)[C@H]1OC(C)=O
PC-3 prostate
  GI50: 1.55 µM
  TGI: 2.93 µM
CCRF-CEM leukemia
  GI50: 1.93 µM
  TGI: 4.55 µM
SF-268 CNS
  GI50: 1.73 µM
  TGI: 3.62 µM
ACHN renal
  GI50: 1.73 µM
  TGI: 3.11 µM
T-47D breast
  GI50: 1.72 µM
  TGI: 3.48 µM
SF-539 CNS
  GI50: 1.68 µM
  TGI: 3.1 µM
NCI-H23 lung
  GI50: 1.75 µM
  TGI: 3.47 µM
UO-31 renal
  GI50: 1.41 µM
  TGI: 2.71 µM
SF-295 CNS
  GI50: 1.82 µM
  TGI: 3.29 µM
HOP-92 NSCLC
  GI50: 1.33 µM
  TGI: 2.81 µM
A498 renal
  GI50: 1.8 µM
  TGI: 3.21 µM
SNB-75 CNS
  GI50: 1.38 µM
  TGI: 2.69 µM
K-562 leukemia
  GI50: 1.91 µM
  TGI: 6.16 µM
DU-145 prostate
  GI50: 1.7 µM
  TGI: 3.15 µM
MDA-MB-231 breast
  GI50: 1.61 µM
  TGI: 3.1 µM
SK-OV-3 ovarian
  GI50: 1.72 µM
  TGI: 3.18 µM
CAKI-1 renal
  GI50: 1.54 µM
  TGI: 2.9 µM
RXF 393 renal
  GI50: 1.52 µM
  TGI: 2.95 µM
NCI-H460 lung
  GI50: 1.84 µM
  TGI: 3.47 µM
MDA-MB-435
  GI50: 1.69 µM
  TGI: 3.1 µM
SK-MEL-28 melanoma
  GI50: 1.74 µM
  TGI: 3.17 µM
UACC-62 melanoma
  GI50: 1.86 µM
  TGI: 3.34 µM
SN12C renal
  GI50: 1.76 µM
  TGI: 3.28 µM
A549 NSCLC
  GI50: 1.66 µM
  TGI: 3.27 µM
HL-60(TB) leukemia
  GI50: 1.77 µM
  TGI: 3.71 µM
SK-MEL-2 melanoma
  GI50: 1.78 µM
  TGI: 3.45 µM
HS 578T breast
  GI50: 1.73 µM
  TGI: 3.71 µM
U251 CNS
  GI50: 1.69 µM
  TGI: 3.21 µM
COLO 205 colon
  GI50: 1.72 µM
  TGI: 3.32 µM
SW-620 colon
  GI50: 1.71 µM
  TGI: 3.39 µM
IGROV1 ovarian
  GI50: 1.62 µM
  TGI: 3.02 µM
MALME-3M melanoma
  GI50: 1.55 µM
  TGI: 3.04 µM
OVCAR-5 ovarian
  GI50: 1.62 µM
  TGI: 2.99 µM
KM12 colon
  GI50: 1.68 µM
  TGI: 3.18 µM
OVCAR-4 ovarian
  GI50: 1.71 µM
  TGI: 3.23 µM
UACC-257 melanoma
  GI50: 1.87 µM
  TGI: 3.61 µM
EKVX NSCLC
  GI50: 1.69 µM
  TGI: 3.3 µM
